This note sets out measurements from US12168012B2, “NLRP3 inflammasome inhibitors” (Novartis AG, priority 2018, dated 2024).

The IC50 is the concentration at which inhibition is half-maximal.

For experiment [1], the system named is NF-kB-dependent TNF-α secretion. The experiment in a line: TNF-α secretion assay (counterscreen). It is filed as cell-based. Conditions: Homo sapiens; THP-1 cells, Pam3CSK4-stimulated, 3 hours, HTRF. As for the experimental part: Monocytic THP-1 cells were maintained according to providers' instructions in RPMI media as described above. Undifferentiated cells were plated at 50,000 cells per well in a 384-well flat-bottom cell culture plates (Greiner, #781986), and allowed to rest overnight. Experimental compounds were prepared and added as described above. TNF-α secretion was triggered by the addition of either 1 μg/mL LPS (Sigma, #L4391) or 100 ng/mL Pam3CSK4 (Invivogen, #tlrl-pms) depending on the experiment, and cells were incubated for 3 hours. 10 μL supernatant was removed, and TNF-α levels were monitored using an HTRF assay (CisBio, #62TNFPEC) according to manufacturers' instructions. Viability was monitored as described above.
IC50 values were calculated from the plot of percentage of inhibition versus the inhibitor concentration by a logistics fit according to: y=A2+(A1−A2)/(1+(x/IC50)^p) where y is the %-inhibition at the inhibitor concentration, x. A1 is the lowest inhibition value, i.e. 0%, and A2 the maximum inhibition value, i.e. 100%. The exponent, p, is the Hill coefficient. The curve fitting was conducted with an internally developed software suite. […]
For orientation: Counterscreens check selectivity or assay interference.

The subject of another experiment is NLRP3 inflammasome. In words: IL-1β secretion assay. It is filed as cell-based. Conditions: Homo sapiens, THP-1, 3 h, PMA-differentiated THP-1 cells, 15 μM nigericin, HTRF. The method, then: 10 μL supernatant was removed, and IL-1p levels were monitored using an HTRF assay (CisBio, #62IL1PEC) according to manufacturers' instructions. Viability and pyroptosis was monitored with the addition of PrestoBlue cell viability reagent (Life Technologies, #A13261) directly to the cell culture plate.
IC50 values were calculated from the plot of percentage of inhibition versus the inhibitor concentration by a logistics fit according to: y=A2+(A1−A2)/(1+(x/IC50)^p) where y is the %-inhibition at the inhibitor concentration, x. A1 is the lowest inhibition value, i.e. 0%, and A2 the maximum inhibition value, i.e. 100%. The exponent, p, is the Hill coefficient. The curve fitting was conducted with an internally developed software suite.
NLRP3-dependent IL-1β secretion was stimulated in PMA-differentiated THP-1 cells by the addition of nigericin, and cytokines were measured in the […] after 3 hours. As discussed above, activation of the NLRP3 inflammasome requires both an NF-kB-dependent priming step and the addition of a NLRP3 activator.

Turning to `O=C(Cn1nc(C2CC2)n2c(cc3scnc32)c1=O)Nc1cccnc1` [Ex 4, 2-(5-Cyclopropyl-8-oxothiazolo[5′,4′:4,5]pyrrolo[1,2-d][1,2,4]triazin-7(8H)-yl)-N-(pyridin-3-yl)acetamide], the IC50 in experiment [1] is above 100000 nM; in the experiment on NLRP3 inflammasome, 220 nM.
On to `CC(C)c1nn(CC(=O)N[C@H]2CC[C@H](C(=O)O)CC2)c(=O)c2cc3sc(Cl)cc3n12` [Ex 53, (1r,4r)-4-(2-(2-Chloro-5-isopropyl-8-oxothieno[2′,3′:4,5]pyrrolo[1,2-d][1,2,4]triazin-7(8H)-yl)acetamido)cyclohexane-1-carboxylic acid], for which the 50% inhibitory concentration (IC50) in experiment [1] is above 100000 nM; in the experiment on NLRP3 inflammasome it was 34.2 nM.
For the compound `CC(C)c1nn(CC(=O)Nc2cccnc2)c(=O)c2cc3sc(F)cc3n12` [Ex 5, 2-(2-Fluoro-5-isopropyl-8-oxothieno[2,3′:4,5]pyrrolo[1,2-d][1,2,4]triazin-7(8H)-yl)-N-(pyridin-3-yl)acetamide], in experiment [1], the IC50 was above 100000 nM.
The same measure, in the same setting: for `CC(C)c1nn(CC(=O)N[C@H]2CCCN(C)C2)c(=O)c2cc3sc(Cl)cc3n12` [Ex 18, (S)-2-(2-Chloro-5-isopropyl-8-oxothieno[2′,3′:4,5]pyrrolo[1,2-d][1,2,4]triazin-7(8H)-yl)-N-(1-methylpiperidin-3-yl)acetamide] the value was above 100000 nM.
The same measure, in the same setting: for `CC(C)c1nn(CC(=O)N[C@@H]2CCCN(C)C2)c(=O)c2cc3sc(Cl)cc3n12` [Ex 17, (R)-2-(2-Chloro-5-isopropyl-8-oxothieno[2′,3′:4,5]pyrrolo[1,2-d][1,2,4]triazin-7(8H)-yl)-N-(1-methylpiperidin-3-yl)acetamide] the value was above 100000 nM; for `CC(C)c1nn(CC(=O)N[C@@H]2CCCN(C)C2)c(=O)c2cc3scnc3n12` [Ex 48, (R)-2-(5-Isopropyl-8-oxothiazolo[5′,4′:4,5]pyrrolo[1,2-d][1,2,4]triazin-7(8H)-yl)-N-(1-methylpiperidin-3-yl)acetamide], above 100000 nM; for `CC(C)c1nn(CC(=O)Nc2cccnc2)c(=O)c2cc3sc(Cl)cc3n12` [Ex 2, 2-(2-Chloro-5-isopropyl-8-oxothieno[2′,3′:4,5]pyrrolo[1,2-d][1,2,4]triazin-7(8H)-yl)-N-(pyridin-3-yl)acetamide], above 100000 nM.
As for `CC(C)c1nn(CC(=O)N[C@H]2CCN(C)C2)c(=O)c2cc3sc(Cl)cc3n12` [Ex 105, (S)-2-(2-Chloro-5-isopropyl-8-oxothieno[2′,3′:4,5]pyrrolo[1,2-d][1,2,4]triazin-7(8H)-yl)-N-(1-methylpyrrolidin-3-yl)acetamide], in the experiment with NLRP3 inflammasome, the half-maximal inhibitory concentration (IC50) stood at 838 nM.
The same measure, in the same setting: for `CC(C)c1nn(CC(=O)N[C@H]2C[C@H](O)C2)c(=O)c2cc3sc(Cl)cc3n12` [Ex 108, 2-(2-Chloro-5-isopropyl-8-oxothieno[2′,3′:4,5]pyrrolo[1,2-d][1,2,4]triazin-7(8H)-yl)-N-((1r,3r)-3-hydroxycyclobutyl)acetamide] the value was 101 nM.
Same read-out and setting: for `CC(C)c1nn(CC(=O)N[C@H]2C[C@@](C)(O)C2)c(=O)c2cc3sc(F)cc3n12` [Ex 87, 2-(2-Fluoro-5-isopropyl-8-oxothieno[2′,3′:4,5]pyrrolo[1,2-d][1,2,4]triazin-7(8H)-yl)-N-((1s,3s)-3-hydroxy-3-methylcyclobutyl)acetamide] the value was 1 nM; for `CC(C)(O)c1nn(CC(=O)N[C@H]2CCNC2)c(=O)c2cc3sc(Cl)cc3n12` [Ex 107, (S)-2-(2-Chloro-5-(2-hydroxypropan-2-yl)-8-oxothieno[2′,3′:4,5]pyrrolo[1,2-d][1,2,4]triazin-7(8H)-yl)-N-(pyrrolidin-3-yl)acetamide], 4400 nM.
The compound `CC(C)c1nn(CC(=O)NCCC(C)(C)O)c(=O)c2cc3sc(F)cc3n12` [Ex 84, 2-(2-Fluoro-5-isopropyl-8-oxothieno[2′,3′:4,5]pyrrolo[1,2-d][1,2,4]triazin-7(8H)-yl)-N-(3-hydroxy-3-methylbutyl)acetamide] registered a half-inhibitory concentration (IC50) in the experiment with NLRP3 inflammasome of 12.9 nM.
Compound `CN1CCC[C@@H](NC(=O)Cn2nc(C(C)(C)O)n3c(cc4sc(Cl)cc43)c2=O)C1` [Ex 60, (R)-2-(2-Chloro-5-(2-hydroxypropan-2-yl)-8-oxothieno[2′,3′:4,5]pyrrolo[1,2-d][1,2,4]triazin-7(8H)-yl)-N-(1-methylpiperidin-3-yl)acetamide] showed an IC50 in experiment [1] above 100000 nM.
Still for that read-out and setting: then `CC(C)c1nn(CC(=O)N[C@@H]2CCCNC2)c(=O)c2cc3sc(Cl)cc3n12` [Ex 10, (R)-2-(2-Chloro-5-isopropyl-8-oxothieno[2′,3′:4,5]pyrrolo[1,2-d][1,2,4]triazin-7(8H)-yl)-N-(piperidin-3-yl)acetamide], with above 100000 nM.
On the same count and under the same terms, for `CC(C)c1nn(CC(=O)NC2CCOCC2)c(=O)c2cc3sc(Cl)cc3n12` [Ex 75, 2-(2-Chloro-5-isopropyl-8-oxothieno[2′,3′:4,5]pyrrolo[1,2-d][1,2,4]triazin-7(8H)-yl)-N-(tetrahydro-2H-pyran-4-yl)acetamide] the value was above 100000 nM.
Take `CC(C)c1nn(CC(=O)N[C@H]2C[C@@H](O)C2)c(=O)c2cc3sc(Cl)cc3n12` [Ex 109, 2-(2-Chloro-5-isopropyl-8-oxothieno[2′,3′:4,5]pyrrolo[1,2-d][1,2,4]triazin-7(8H)-yl)-N-((1s,3s)-3-hydroxycyclobutyl)acetamide]: in the experiment on NLRP3 inflammasome, 221 nM corresponded to half-maximal inhibition (IC50). In other words, the sub-micromolar range.
The same measure, in the same setting: for `CCN1CCC[C@@H](NC(=O)Cn2nc(C(C)(C)O)n3c(cc4sc(Cl)cc43)c2=O)C1` [Ex 132, (R)-2-(2-Chloro-5-(2-hydroxypropan-2-yl)-8-oxothieno[2′,3′:4,5]pyrrolo[1,2-d][1,2,4]triazin-7(8H)-yl)-N-(1-ethylpiperidin-3-yl)acetamide] the value was 0.8 nM; for `CC(C)c1nn(CC(=O)NC2CCCC2)c(=O)c2cc3sc(Cl)cc3n12` [Ex 101, 2-(2-chloro-5-Isopropyl-8-oxothieno[2′,3′:4,5]pyrrolo[1,2-d][1,2,4]triazin-7(8H)-yl)-N-cyclopentylacetamide], 381 nM; for `CC(C)(O)c1nn(CC(=O)Nc2ccc3cn[nH]c3c2)c(=O)c2cc3sc(Cl)cc3n12` [Ex 65, 2-(2-Chloro-5-(2-hydroxypropan-2-yl)-8-oxothieno[2′,3′:4,5]pyrrolo[1,2-d][1,2,4]triazin-7(8H)-yl)-N-(1H-indazol-6-yl)acetamide], 6.2 nM.
In turn, `CC(C)c1nn(CC(=O)N[C@@H]2CCCN(C3CCC3)C2)c(=O)c2cc3sc(Cl)cc3n12` [Ex 125, (R)-2-(2-Chloro-5-isopropyl-8-oxothieno[2′,3′:4,5]pyrrolo[1,2-d][1,2,4]triazin-7(8H)-yl)-N-(1-cyclobutylpiperidin-3-yl)acetamide] registered an IC50 in experiment [1] above 33000 nM.
`CC(C)c1nn(CC(=O)N[C@@H]2CC[C@@H](N)C2)c(=O)c2cc3sc(Cl)cc3n12` [Ex 22, N-((1R,3R)-3-Aminocyclopentyl)-2-(2-chloro-5-isopropyl-8-oxothieno[2′,3′:4,5]pyrrolo[1,2-d][1,2,4]triazin-7(8H)-yl)acetamide] had an IC50 with NLRP3 inflammasome of 408 nM.
Still for that read-out and setting: for `O=C(Cn1nc(C2CC2)n2c(cc3sc(Cl)cc32)c1=O)N[C@H]1CC[C@H](C(=O)O)CC1` [Ex 121, (1r,4r)-4-(2-(2-Chloro-5-cyclopropyl-8-oxothieno[2′,3′:4,5]pyrrolo[1,2-d][1,2,4]triazin-7(8H)-yl)acetamido)cyclohexane-1-carboxylic acid] the value was 44.1 nM.
The same measure, in the same setting: then `CC(C)c1nn(CC(=O)N[C@H]2CC[C@H](C(=O)O)CC2)c(=O)c2cc3scnc3n12` [Ex 119, (1r,4r)-4-(2-(5-Isopropyl-8-oxothiazolo[5′,4′:4,5]pyrrolo[1,2-d][1,2,4]triazin-7(8H)-yl)acetamido)cyclohexane-1-carboxylic acid], with 40.5 nM.
The compound `CC(C)c1nn(CC(=O)Nc2cc(C(F)F)ncn2)c(=O)c2cc3sc(Cl)cc3n12` [Ex 112, 2-(2-Chloro-5-isopropyl-8-oxothieno[2′,3′:4,5]pyrrolo[1,2-d][1,2,4]triazin-7(8H)-yl)-N-(6-(difluoromethyl)pyrimidin-4-yl)acetamide] came in with an IC50 in the experiment on NLRP3 inflammasome of 253 nM. This IC50 is about 6.2-fold higher than that of the compound before.
Same read-out and setting: then `Cc1nc2c(cc3c(=O)n(CC(=O)N[C@H]4CC[C@H](C(=O)O)CC4)nc(C(C)C)n32)s1` [Ex 118, (1r,4r)-4-(2-(5-Isopropyl-2-methyl-8-oxothiazolo[5′,4′:4,5]pyrrolo[1,2-d][1,2,4]triazin-7(8H)-yl)acetamido)cyclohexane-1-carboxylic acid], with 78.8 nM.
The same measure, in the same setting: then `CC(C)c1nn(CC(=O)Nc2cccnc2Cl)c(=O)c2cc3sc(Cl)cc3n12` [Ex 13, 2-(2-Chloro-5-isopropyl-8-oxothieno[2′,3′:4,5]pyrrolo[1,2-d][1,2,4]triazin-7(8H)-yl)-N-(2-chloropyridin-3-yl)acetamide], with 94 nM.
